Measurements from patent publication US12180146B2, “Antihypertensive polyol compound and derivative thereof” (TAO PHARMACEUTICAL (SUZHOU) CO., LTD, priority 2020, dated 2024).

Tests used:
[1] = tested on: spontaneously hypertensive rats (SHR); assay: Antihypertensive activity test: blood pressure and heart rate of spontaneously hypertensive rats (SHR); type: in vivo, rat; details: 200 mg/kg; for SHR blood pressure (SBP), time after administration 1 h / SHR blood pressure (SBP), time after administration 2 h / SHR blood pressure (SBP), time after administration 3 h / SHR blood pressure (SBP), time after administration 4 h / SHR blood pressure (SBP), time after administration 5 h / SHR blood pressure (SBP), time after administration 6 h: n = 8
Outline: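 Spontaneously hypertensive rats received compound at 200 mg/kg. SBP and heart rate were measured before and after dosing. A drop in SBP of ≥20 mmHg from baseline counted as effective, and heart-rate changes were tested by paired t-test (P<0.05).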

[2] = tested on: hypoxic pulmonary hypertension model rats; assay: Hypoxic pulmonary hypertension model rats, oral (gavage) treatment for 28 days; type: in vivo, SD rats; details: hypoxic PAH rats, 200 mg/kg, po
Procedure: An animal model of pulmonary hypertension in SD rats was established in a hypoxic and low-pressure environment, and compound 1 was administered by gavage at the same time for treatment. The rat pulmonary artery hemodynamics and right heart hypertrophy index RVHI were measured to determine whether compound 1 has effects of improving hypoxic pulmonary hypertension.
(§1) SD rats (purchased from Shanghai Xipuer-Bikai Experimental Animal Co., Ltd.), male, weighing 180-200 g, were bred in an artificially controlled animal room with each 12 hours of light and darkness at a temperature of 20-25° C. and relative humidity of 50-60%, and allowed ad libitum to food and water. The rats were randomly divided into groups according to the experimental requirements, and kept separately in cages, with 3 to 4 rats per cage. All relevant operations of animal experiments are in compliance with the provisions of “Guidelines for the Management and Use of Laboratory Animals” of China.
The hypoxic PAH model was established by placing SD male rats in a fully-automatically regulated low-pressure hypoxic chamber (atmospheric pressure of about 50 kPa, oxygen concentration of 10%) for 8 hours a day for 28 days. The rats in the blank control group were kept in a normoxic environment.
The experimental rats of hypoxic PAH model were divided into 8 groups, namely blank control group, model group, Sidenafil (25 mg/kg) group, compound 1 (10 mg/kg) group, compound 1 (25 mg/kg) group, compound 1 (50 mg/kg) group, compound 1 (100 mg/kg) group, and compound 1 (200 mg/kg) group. The concentration in the parentheses of the group name represents the administration concentration of the compound or drug. In hypoxia-induced PAH experiments, Sidenafil is often used as a positive drug, which can reduce the pulmonary artery pressure in rats and reduce the right ventricular hypertrophy and vascular remodeling. In this experiment, 25 mg/kg of Sidenafil was used as the positive drug. Both the positive drugs Sidenafil and Compound 1 were dissolved in physiological saline and formulated into solutions of different concentrations according to different administration concentrations. The rats were continuously administered for 28 days with an administration volume of 5 ml/kg. Rats in the control and model groups were given the corresponding volume of physiological saline solution via gavage. The specific grouping can be found in Table 5.
After the administration was completed, the POWERLAB biological information acquisition and treatment system was started, and the right cardiac catheter filled with 0.2% heparin sodium (Beijing Solo Technology Co. Ltd.) in normal saline was connected to the pressure transducer and then zero-calibrationed for use. After 20% urethane (Shanghai Yuanye Biotechnology Co., Ltd.) solution was injected into the abdominal cavity of the rats for anesthesia, the right neck hair was shaved and the right jugular vein was isolated and exposed. […] After the typical right ventricular waveform appeared and stabilized for a while, the waveform was recorded, and then the pressure value was read by Powerlab biological information acquisition and processing system (ADInstruments).
After the pressure was measured, the catheter was taken out, and the rat was dissected immediately to take out the heart and lung tissues. The right ventricle (RV) and the left ventricle and interventricular septum (LV+S) were separated and weighed, and the right heart hypertrophy index RVHI=RV/(LV+S) was calculated. The lung lobe tissue from the right lower part of the lung was separated, soaked in 4% paraformaldehyde (Sigma) for about 1 week to prepare a paraffin section with a thickness of 3 μm, and then conducted to hematoxylin-eosin staining (Wuhan Guge Biotechnology Co., Ltd.). […]

[3] = tested on: monocrotaline-induced pulmonary hypertension model rats (MCT-PAH); assay: Monocrotaline-induced pulmonary hypertension model rats, oral (gavage) treatment for 21 days; type: in vivo, SD rats; details: 100 mg/kg
Text: Monocrotaline (MCT) was subcutaneously injected to establish an animal model of pulmonary hypertension in SD rats. At the same time, compound 1 was given by gavage for treatment. The pulmonary artery hemodynamics and right heart hypertrophy index RVHI of the rates were detected to determine whether the oral administration of compound 1 has effects of improving Monocrotaline induces pulmonary hypertension.
as §1
During the experiment, SD rats were randomly divided into 4 groups: blank control group, pulmonary hypertension model group, Selexipag (1 mg/kg) treatment group and compound 1 (100 mg/kg) group with 6 rats in each group, and the concentration in brackets represents the administration concentration of the compound, in which Selexipag is a new oral long-acting prostacyclin receptor agonist discovered and synthesized by Japan New Drug Co., Ltd. On the first day of the experiment, normal saline was injected subcutaneously into the back of neck of rats in the blank control group, and monocrotaline (Chengdu Purifa Biotechnology Co., Ltd.) solution was injected in the rats in other groups at a dosage of 60 mg/kg. Both the positive drug, Selexipag and Compound 1 were administered by gavage. Selexipag and […] were dissolved in 0.5% CMC-Na solution. The rats were continuously administered for 21 days with a volume of […]. The rats in the control and model groups were given the corresponding volume of CMC-Na solution by gavage. Specific groupings can be found in Table 7.
After the administration, the pulmonary vascular hemodynamics and RVHI was determined according to the same experiment method as that in Example 1.

[4] = tested on: monocrotaline-induced pulmonary hypertension model rats (MCT-PAH); assay: Monocrotaline-induced pulmonary hypertension model rats, aerosol inhalation treatment; type: in vivo, SD rats; details: 30 mg/kg, inh, 28 days
Procedure: A pulmonary hypertension animal model of SD rats was established by subcutaneous injection of monocrotaline (MCT). The compound 1 was administered by aerosol inhalation for treatment. The pulmonary artery hemodynamics and right heart hypertrophy index RVHI of rats were tested to determine whether compound 1 administered by aerosol inhalation has effects of improving monocrotaline-induced pulmonary hypertension.
as §1
In the second experiment, the rats were divided into 5 groups, namely the control group, model group, positive control Tyvaso (1.62 μg/kg) group, compound 1 (10 mg/kg) group and compound 1 (30 mg/kg) group. On the first day of the experiment, normal saline was injected subcutaneously into the back of the neck of the rats in the blank control group, and monocrotaline (Chengdu Purifa Biotechnology Co., Ltd.) solution was injected in the other groups at a dosage of 60 mg/kg. Compound 1 and Tyvaso were administered by aerosol inhalation, that is, the compound was firstly dissolved in physiological saline, and then the solution was prepared into an aerosol with a nebulizer to be inhaled into the mouth and nose of rats. The rats in the control group and the model group only inhaled an aerosol made of physiological saline. The rats were continuously administered for 28 days, and the concentration in the parentheses of the group name represents the administered concentration of the compound. Specific groupings can be found in Table 9. After the administration, the pulmonary vascular hemodynamics and RVHI were determined in the same way as the experiment method in Example 1.

Row | SMILES | SBP Difference before and after administration, 1 h [1] | SHR blood pressure (SBP), time after administration 1 h [1] | SBP Difference before and after administration, 2 h [1] | SHR blood pressure (SBP), time after administration 2 h [1] | SBP Difference before and after administration, 3 h [1] | SHR blood pressure (SBP), time after administration 3 h [1] | SBP Difference before and after administration, 4 h [1] | SHR blood pressure (SBP), time after administration 4 h [1] | SBP Difference before and after administration, 5 h [1] | SHR blood pressure (SBP), time after administration 5 h [1] | SBP Difference before and after administration, 6 h [1] | SHR blood pressure (SBP), time after administration 6 h [1] | 2 × MT/ED [2] | RVHI [2] | RVSP [2] | mPAP [2] | 2 × MT/ED [3] | RVHI [3] | RVSP [3] | mPAP [3] | further results
1 | CCc1ccccc1C(O)CO (stereo not drawn) [Compound 5] | 20 mmHg | 169 ± 6.32 mmHg | 15 mmHg | 174 ± 4.56 mmHg | 18 mmHg | 171 ± 9.34 mmHg | 16 mmHg | 173 ± 13.66 mmHg | 15 mmHg | 174 ± 15.9 mmHg | 11 mmHg | 178 ± 8.48 mmHg | 0.270 ± 0.012 | 0.271 ± 0.038 | 60.29 ± 3.87 mmHg | 15.76 ± 2.71 mmHg | 0.29 ± 0.054 | 0.35 ± 0.048 | 44.32 ± 2.12 mmHg | 15.76 ± 2.71 mmHg | 2 × MT/ED [4]: 0.390 ± 0.038; RVHI [4]: 0.324 ± 0.053; RVSP [4]: 40.18 ± 4.62 mmHg; mPAP [4]: 11.06 ± 2.95 mmHg
2 | OCC(O)c1cccc(F)c1 (stereo not drawn) [Compound 7] | 16 mmHg | 177 ± 9.56 mmHg | 21 mmHg | 172 ± 7.36 mmHg | 22 mmHg | 171 ± 4.07 mmHg | 20 mmHg | 173 ± 6.18 mmHg | 18 mmHg | 175 ± 5.63 mmHg | 13 mmHg | 180 ± 7.61 mmHg | 0.291 ± 0.023 | 0.261 ± 0.037 | 62.78 ± 3.41 mmHg | 16.64 ± 2.08 mmHg | 0.27 ± 0.045 | 0.33 ± 0.058 | 42.31 ± 2.78 mmHg | 15.67 ± 2.70 mmHg | 2 × MT/ED [4]: 0.375 ± 0.024; RVHI [4]: 0.267 ± 0.013; RVSP [4]: 44.61 ± 2.96 mmHg; mPAP [4]: 12.45 ± 2.41 mmHg
